Usually melting point stands for the temperature of the solid-liquid transition.

In the case of `CCC12CCC3C4CCC(=O)C=C4CCC3C1CCC2OC(=O)CCC1CCCC1` (centres undefined), the melting point is 88 to 89 °C. As for `CCc1cc(C)c(Br)c(CC)c1-c1c(OC(=O)OC)c(C)nn(C)c1=O`, the figure is 113 to 115 °C. As for `CCOC(=O)c1c(CN2CCNCC2)nc2cc(OC)c(OC)cc2c1-c1ccc(OC)c(OC)c1`, the figure is 192 to 193 °C. As for `CC(=O)Nc1ccc(-c2ccc3nc(-c4cccnc4N)n(-c4ccc(CNC(=O)c5ccccc5)cc4)c3n2)cc1`, the melting point was in the range of 299 to 300 °C. `OC(CCl)COc1ccc2c(c1)OCC(c1ccccc1)C2` (centres undefined) showed a melting point of 74 to 76 °C. Under `C=CC(=O)OC(C#N)Cc1cccc(Cl)c1` (centres undefined) stands 100 to 101 °C; under `O=C(NCc1ccn(-c2cc3nc(C(=O)O)c(=O)[nH]c3cc2C(F)(F)F)c1)Nc1ccc(F)cc1`, 168 to 170 °C. As for `CC(C(=O)N(c1ccccc1)c1ccccc1)N1C(=O)c2ccccc2C1=O` (racemic), the figure is 89 °C; as for `O=C(NCC1CCC1)NCC1CCC1`, 153 to 155 °C; as for `Cc1ccc(NC(=O)c2cccc(N3CCOCC3)c2)cc1[N+](=O)[O-]`, 149 to 150 °C. The compound `N#CC1CN1C(=O)c1ccc(S(N)(=O)=O)cc1` (centres undefined) registered a melting point of 145 to 146 °C. In turn, `CN=Cc1cnc(-c2ccccc2Cl)s1` had a melting point of 81 to 83 °C. Compound `CCOC(=O)Cc1cc(Cl)cc(C(=O)c2ccccc2)c1N` displayed a melting point of 80 to 82 °C.

With `CC(Oc1ccc2nc(NC(=O)NCCN3CCN(Cc4ccccc4)CC3)sc2c1)c1c(Cl)ccc(F)c1Cl` (centres undefined), the melting point was in the range of 125 to 139 °C. In the case of `Cc1nc(-c2ccc(C#N)cc2)oc1C(=O)NCCCCN1CCC(c2ccc3c(c2OCCO)CCCC3)CC1`, the melting point was in the range of 109 to 111 °C. As to `O=[N+]([O-])c1ccc(OCCc2ccc(CCl)cn2)cc1`, the melting point lay in the range of 77 to 78 °C.

Compound `COc1cc2c(c(Cl)c1Cl)C(=O)C(C)(CC1CCCC1)C2` (centres undefined) registered a melting point of 75 to 77 °C. Turning to `CC1=NCCc2c1n(-c1ccccc1)c1ccccc21`, the melting point was 110 to 112 °C.

The compound `Cc1ccc(C#Cc2ccc(NC(=O)OC(C)(C)C)c([N+](=O)[O-])c2)cc1` displayed a melting point of 164 to 165 °C.

In turn, `N#Cc1c[nH]cc1-c1cccc(C(F)(F)F)c1Cl` came in with a melting point of 82 °C. Compound `CC(C)C1(C)N=C(c2nc3occc3cc2C(=O)O)NC1=O` (centres undefined) came in with a melting point of 237 to 244 °C. Under `CCCOc1ccc(-c2scc(-c3ccccc3Cl)c2CC(=O)NC(=N)NCCCO)c(C)c1` stands 103 to 106 °C.

`COc1ccc(/C=C/c2nc3c(c(=O)n(C)c(=O)n3C)n2C)c(C)c1C` showed a melting point of over 275 °C.

`CC(=Cc1ccccc1)c1ccc2c(c1)C(C)(C)C(O)C2(C)C` (centres undefined): the melting point lay in the range of 63 to 67 °C. In the case of `Cc1cc(C(N)=O)cc([N+](=O)[O-])n1`, the melting point lay within 227 to 228 °C. As for `CC(C)n1c(N2CCN(C)CC2)nc2cc(Cl)c(N)cc21`, the figure is 192 to 193 °C; as for `OCc1csc(Cl)c1Cl`, 63 to 65 °C; as for `CC(C)c1ccc(S(=O)(=O)Nc2ccccc2C(=O)NCCc2ncc[nH]2)cc1`, 210 to 218 °C.

Regarding `Cn1c(CC(=O)O)c(-c2ccccc2)c2cc(Cl)ccc21`, the melting point was 141 to 142 °C.

For `CCC(=O)c1cccc(C(=O)Nc2ccccn2)c1`, the melting point was 128 to 129 °C. As for `Cc1ccc(N=C(Nc2ccc(C)cc2)ON2C(C)(C)CC(O)CC2(C)C)cc1`, the figure is 124 to 126 °C; as for `CC(=O)Oc1ccc(S(=O)(=O)Cl)cc1N=NC(C(C)=O)C(=O)Nc1ccccc1` (centres undefined), 225 to 226 °C. The compound `CCOC(=O)C(=CNc1cc([N+](=O)[O-])ccc1O)C(=O)c1cc(F)c(F)c(F)c1F` registered a melting point of 222 °C.

For the compound `ONc1ccccc1F`, the melting point is 70 to 71 °C.

With `Cn1ccc2c1CCn1ccnc1C2=C1CCN(CCNc2ncccn2)CC1`, the melting point was 202 °C. Take `Cc1c(C(N)=O)nnn1Cc1c(F)cccc1F`: the melting point lay within 208 to 210 °C. As for `Cc1cccc2c1N(CC(=O)c1ccccc1[N+](=O)[O-])C(=O)C(NC(=O)Nc1cccc(-c3nnn[nH]3)c1)N=C2c1ccccc1F` (centres undefined), the figure is 192 to 197 °C; as for `CCOc1ccc(NC(=O)NCCCOc2cccc(CN3CCCCC3)c2)cc1`, 109 to 111 °C.

`Nc1nc(Cl)c2[nH]c(=O)n(CCCCO)c2n1` yielded a melting point of 222 to 225 °C. As to `O=C(O)CCc1cnoc1-c1ccc(F)c(F)c1`, the melting point lay within 102 to 103 °C. As for `CN(C)c1c(C(N)=O)sc2cccc(Cl)c12`, the figure is 194 to 196 °C. Under `CC(C)(C)c1ccc(OCC2=NC3(O)c4ccc(Cl)cc4CC3S2)cc1` (centres undefined) stands 122 to 124 °C; under `CCN(CCF)CCN1C(=O)c2ccccc2C1=O`, 57 to 59 °C. Regarding `CNC(=O)SC(C(=O)O)c1ccccc1` (centres undefined), the melting point was 128 to 129 °C. Compound `O=C(Nc1ccccc1[N+](=O)[O-])C12CC3CC(CC(C3)C1)C2` gave a melting point of 111 to 114 °C. Regarding `CC(=O)OC1CSC(Oc2ccc(-c3cccnc3F)nc2Cl)C(OC(C)=O)C1OC(C)=O` (centres undefined), the melting point amounted to 227 °C. Under `CC(=O)c1ccc2c(c1)CC(NC(=O)C(F)(F)F)C2` (centres undefined) stands 112 to 114 °C. Under `CC1CN(c2c(F)c(N)c3c(=O)c(C(=O)O)cn(C4CC4)c3c2OC(F)F)CCN1` (centres undefined) stands 283 to 286 °C. As for `CCCCNC(=O)C(Cc1ccccc1)NC(=O)Nc1n[nH]c(=S)s1` (centres undefined), the figure is 177 to 179 °C; as for `CNCCNC(=NCCSCc1[nH]cnc1C)NC#N`, 146 to 148 °C. In turn, `CC(=O)NC[C@H]1CN(c2ccc(C(=O)c3cnc4ccc(F)cn34)cc2)C(=O)O1` gave a melting point of 224 to 226 °C. Under `COC(=O)Nc1cc(Oc2ccc3c(C(=O)Nc4cccc(C(F)(F)F)c4)cccc3c2)ccn1` stands 230 to 232 °C. In turn, `COCCCN(c1nc(Cl)nc(N(CCCOC)C2CC(C)(C)NC(C)(C)C2)n1)C1CC(C)(C)NC(C)(C)C1` registered a melting point of 160 to 161 °C. Under `Cc1ccc(C(C#N)=C2CCCCC2)cc1` stands 50.5 to 51.3 °C; under `N#Cc1cc(C(=O)c2ccccc2)ccc1O`, 185 to 186 °C. As for `COC(=O)CCCCCCCCCCNC(=O)C(CSC(C)=O)Cc1ccccc1` (centres undefined), the figure is 64 to 66 °C; as for `Cn1cc(C(N)=O)c(=O)c2ccc(C(C)(C)C)cc21`, 268 to 270 °C; as for `CCCc1nc2c(N)nc3ccccc3c2n1CCCC(N)=O`, 249 to 251 °C.

Compound `CCOC(=O)C1=C(NC(=O)Nc2cc(C(=O)OC(C)C)c(F)cc2F)CCC1` registered a melting point of 149 to 151 °C. For the compound `CC(C)(C)C(=O)N[Si](C)(C)C`, the melting point is 101 to 106 °C. As for `CSc1ccccc1C(=O)CBr`, the melting point was in the range of 81 to 82 °C. As for `CCn1cc(C(=O)O)c(=O)c2cc(F)c(N3CCC(CNCCO)C3)c(F)c21` (centres undefined), the figure is 215 to 216 °C; as for `Nc1nc2c(Oc3cc(-c4ccc(C(F)(F)F)cc4)ncn3)cccc2s1`, 232 to 234 °C.

Regarding `NC(=O)CN1CCC(C(=O)N2CCN3C(=O)OC(c4ccccc4)(c4ccccc4)C3C2)CC1` (centres undefined), the melting point lay in the range of 253 to 255 °C.
